The text below walks through data of ChEMBL document CHEMBL4339232, “Exploiting Chemical Toolboxes for the Expedited Generation of Tetracyclic Quinolines as a Novel Class of PXR Agonists” (ACS Med Chem Lett, 2019).

Data set [1] deals with T1, PXR (Nuclear receptor subfamily 1 group I member 2) (Homo sapiens, UniProt O75469).
T1 sequence (O75469 whole entry): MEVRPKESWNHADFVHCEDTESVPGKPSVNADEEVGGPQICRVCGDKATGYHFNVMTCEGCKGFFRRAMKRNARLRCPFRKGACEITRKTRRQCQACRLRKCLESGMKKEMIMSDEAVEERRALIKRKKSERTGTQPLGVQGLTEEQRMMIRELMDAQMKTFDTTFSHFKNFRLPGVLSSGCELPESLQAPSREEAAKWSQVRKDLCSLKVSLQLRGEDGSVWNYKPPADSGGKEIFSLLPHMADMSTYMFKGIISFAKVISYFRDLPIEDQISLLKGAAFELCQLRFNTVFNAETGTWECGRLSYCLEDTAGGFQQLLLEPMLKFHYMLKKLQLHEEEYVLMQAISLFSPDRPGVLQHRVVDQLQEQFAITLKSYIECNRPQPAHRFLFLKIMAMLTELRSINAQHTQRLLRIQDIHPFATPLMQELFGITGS
Description: Agonist activity at PXR (unknown origin) assessed as maximum receptor activation response at 20 uM by AlphaScreen assay relative to T0901317. Particulars: read-out: Efficacy. A general note: Bead proximity is the source of the signal in Alpha formats.

The target of data set [2] is T1, PXR (Nuclear receptor subfamily 1 group I member 2). Nature of the data set: Agonist activity at PXR (unknown origin) at 20 uM by AlphaScreen assay relative to T0901317. Particulars: read-out: Activity.
In data set [3] the target is T2, Nuclear receptor subfamily 1 group I member 2 (Homo sapiens, UniProt O75469).
T2 sequence (O75469 whole entry): T1 sequence (O75469 whole entry)
Nature of the data set: Agonist activity at PXR (unknown origin) by AlphaScreen assay.

As to `CC(C)(C)OC(=O)N1CC[C@H]2[C@@H](c3ccsc3)Nc3c(ccc4c3CCCC4)[C@H]21`, in data set [1], the Emax at 20 µM stood at 60%. For the same molecule, the activity at 20 µM in data set [2] lay in the range of 50 to 75%. The EC50 (as a rule, the midpoint of the concentration-response curve) in data set [3] came out at 3.2 µM.

For `CC(C)(C)OC(=O)N1CC[C@@H]2[C@H]1c1ccc3c(c1N[C@H]2c1ccsc1)CCCC3`, the Emax at 20 µM in data set [1] lay within 82 to 119%. Besides, in data set [2], the activity at 20 µM was in the range of 75 to 100%. Also, the EC50 in data set [3] lay in the range of 1.2 to 1.6 µM.

`c1coc([C@H]2Nc3c(ccc4c3CCCC4)[C@@H]3OCCC[C@H]23)c1` (racemic): the activity at 20 µM in data set [2] was below 25%.

Take `c1cc([C@@H]2Nc3c(ccc4c3CCCC4)[C@@H]3NCC[C@H]23)cs1` (racemic): the activity at 20 µM in data set [2] was below 25%.

Take `CC(C)(C)OC(=O)N1CC[C@@H]2[C@H](c3ccccc3)Nc3c(ccc4c3CCCC4)[C@@H]21` (racemic): the activity at 20 µM in data set [2] lay in the range of 50 to 75%.

In the case of `CC(C)(C)OC(=O)N1CCC[C@@H]2[C@@H](c3ccsc3)Nc3c(ccc4c3CCCC4)[C@@H]21` (racemic), the activity at 20 µM in data set [2] is below 25%.

Turning to `c1csc([C@H]2Nc3c(ccc4c3CCCC4)[C@@H]3OCC[C@H]23)c1` (racemic), in data set [2], the activity at 20 µM was below 25%.

With `CC(C)(C)OC(=O)N1CC[C@@H]2[C@H](c3ccco3)Nc3c(ccc4c3CCCC4)[C@@H]21` (racemic), the Emax at 20 µM in data set [1] came out at 53%. Besides, the activity at 20 µM in data set [2] fell in the range of 75 to 100%. The same molecule had an EC50 in data set [3] of 1.5 µM.

Regarding `c1cc([C@@H]2Nc3c(ccc4c3CCCC4)[C@@H]3NCCC[C@H]23)cs1` (racemic), the activity at 20 µM in data set [2] was below 25%.

For the molecule `CC(C)(C)OC(=O)N1CCC[C@@H]2[C@H](c3ccsc3)Nc3c(ccc4c3CCCC4)[C@@H]21` (racemic), in data set [2], the activity at 20 µM was in the range of 50 to 75%.

With `c1coc([C@@H]2Nc3c(ccc4c3CCCC4)[C@@H]3OCCC[C@H]23)c1` (racemic), the activity at 20 µM in data set [2] was in the range of 50 to 75%.

`CC(C)(C)OC(=O)N1CC[C@@H]2[C@@H](c3ccccc3)Nc3c(ccc4c3CCCC4)[C@@H]21` (racemic): the activity at 20 µM in data set [2] was below 25%.

On to `c1ccc([C@@H]2Nc3c(ccc4c3CCCC4)[C@@H]3OCCC[C@H]23)cc1` (racemic), for which the activity at 20 µM in data set [2] is below 25%.

For `c1coc([C@@H]2Nc3c(ccc4c3CCCC4)[C@@H]3NCC[C@H]23)c1` (racemic), in data set [2], the activity at 20 µM was below 25%.

Consider `CC(C)(C)OC(=O)N1CCC[C@@H]2[C@H](c3ccccc3)Nc3c(ccc4c3CCCC4)[C@@H]21` (racemic), for which the activity at 20 µM in data set [2] is below 25%.

Turning to `c1cc([C@H]2Nc3c(ccc4c3CCCC4)[C@@H]3OCC[C@H]23)cs1` (racemic), in data set [2], the activity at 20 µM fell in the range of 25 to 50%.

Turning to `c1ccc([C@@H]2Nc3c(ccc4c3CCCC4)[C@@H]3OCC[C@H]23)cc1` (racemic), in data set [2], the activity at 20 µM was 25 to 50%.

Turning to `c1ccc([C@H]2Nc3c(ccc4c3CCCC4)[C@@H]3OCC[C@H]23)cc1` (racemic), the activity at 20 µM in data set [2] was below 25%.

`CC(C)(C)OC(=O)N1CC[C@@H]2[C@@H](c3ccsc3)Nc3c(ccc4c3CCCC4)[C@@H]21` (racemic): in data set [1], the Emax at 20 µM turned out to be 15%. In data set [3], this molecule registered an EC50 of 3.7 µM.

For `c1coc([C@H]2Nc3c(ccc4c3CCCC4)[C@@H]3OCC[C@H]23)c1` (racemic), the activity at 20 µM in data set [2] was below 25%.

Take `c1csc([C@@H]2Nc3c(ccc4c3CCCC4)[C@@H]3OCC[C@H]23)c1` (racemic): the activity at 20 µM in data set [2] is 50 to 75%.

Turning to `CC(C)(C)OC(=O)N1CC[C@@H]2[C@H](c3ccsc3)Nc3c(ccc4c3CCCC4)[C@@H]21` (racemic), the Emax at 20 µM in data set [1] worked out at 28%. The same molecule gave an EC50 in data set [3] of 8.4 µM.

Take `c1coc([C@@H]2Nc3c(ccc4c3CCCC4)[C@@H]3OCC[C@H]23)c1` (racemic): the activity at 20 µM in data set [2] fell in the range of 50 to 75%.

For the molecule `CC(C)(C)OC(=O)N1CCC[C@@H]2[C@@H](c3ccccc3)Nc3c(ccc4c3CCCC4)[C@@H]21` (racemic), in data set [2], the activity at 20 µM was below 25%.

On to `CC(C)(C)OC(=O)N1CCC[C@@H]2[C@@H](c3ccco3)Nc3c(ccc4c3CCCC4)[C@@H]21` (racemic), for which the activity at 20 µM in data set [2] was 25 to 50%.

As for `c1cc([C@@H]2Nc3c(ccc4c3CCCC4)[C@@H]3OCC[C@H]23)cs1` (racemic), the Emax at 20 µM in data set [1] came out at 42%. For the same molecule, the activity at 20 µM in data set [2] was 75 to 100%. A half-maximal response in data set [3] (EC50) required 3.5 µM.

`c1coc([C@@H]2Nc3c(ccc4c3CCCC4)[C@@H]3NCCC[C@H]23)c1` (racemic): the activity at 20 µM in data set [2] was below 25%.

Regarding `CC(C)(C)OC(=O)N1CCC[C@@H]2[C@H](c3ccco3)Nc3c(ccc4c3CCCC4)[C@@H]21` (racemic), in data set [2], the activity at 20 µM lay in the range of 25 to 50%.

With `CC(C)(C)OC(=O)N1CC[C@@H]2[C@@H](c3ccco3)Nc3c(ccc4c3CCCC4)[C@@H]21` (racemic), the activity at 20 µM in data set [2] lay within 25 to 50%.

On to `c1ccc([C@H]2Nc3c(ccc4c3CCCC4)[C@@H]3OCCC[C@H]23)cc1` (racemic), for which the activity at 20 µM in data set [2] was below 25%.

With `c1ccc([C@@H]2Nc3c(ccc4c3CCCC4)[C@@H]3NCC[C@H]23)cc1` (racemic), in data set [2], the activity at 20 µM was below 25%.
